Tests used:
[1] = In vitro drug release, Franz diffusion cell with dialysis bag; format: physicochemical; conditions: PBS pH 7.4, 37 ± 0.5 °C
Experimental: The in vitro release study utilized a Franz diffusion cell with a diffusion area of 1.77 cm^2 [44]. The receptor compartment contained 7.5 ml phosphate buffer (PBS) pH 7.4, simulating the pH at the release site in the brain [45, 46], and the system was equilibrated at 37 ± 0.5 °C by a circulating water jacket. […] At certain time intervals (0, 0.25, 0.5, 0.75, 1, 2, 4, 8, 12, 24, 36, 48, and 72 h), 0.5 ml samples were aliquoted from the receptor compartment and replaced with equal volumes of fresh medium to maintain a constant volume. Samples were filtered using a 0.22 μm filter and analyzed spectrophotometrically as previously described. In order to understand the barrier presented by the dialysis membrane, the in vitro release study of unformulated ZNS (free drug) solution in distilled water of the same concentration (1mg/ml w/v) was carried out similarly in a separate setup, all release experiments were done in triplicates, and the release data were fitted to various release kinetic models: zero, first, Higuchi diffusion, and Hixson–Crowell and Korsmeyer–Peppas models.

[2] = test system: neuron-specific enolase (NSE); test: Serum NSE by ELISA in TLE rats; format: in vivo; conditions: compared to the TLE control rats; intranasal, 7 days
Experimental: Temporal lobe epilepsy (TLE) was induced in rats using the pilocarpine model according to the method of Arshad et al.. Prior to the experiment, rats were housed in plastic cages at October University for Modern Science and Arts under controlled environmental conditions (temperatures of 25°±3°C and 50% humidity) with free access to water and softened standard pellet chow. The rats were injected with pilocarpine (300 mg/kg; i.p.) to induce status epilepticus (SE). Atropine (1 mg/kg; i.p.) was injected 30 minutes before pilocarpine injection to antagonize the peripheral muscarinic activity. SE was defined using the modified Racine scale by observing seizure severity categorized as stages 4 and 5. […] The SE seizures were left to last for 3 hours to induce hippocampus damage, after which diazepam (10 mg/kg; i.p.) was injected to attenuate the seizures. Lubricant ophthalmic gel was applied with a cotton swab to each eye to prevent the corneas from drying out during the seizures. The rats were hydrated with sterile Ringer's lactate injections (1 mL, i.p.) for 3 days post-SE induction. […]
The serum levels of neuron-specific enolase (NSE), matrix metallopeptidase-9 (MMP-9), neurofilament light polypeptide (NEFL), and brain-derived neurotrophic factor (BDNF) were measured by ELISA technique using the following standard kits CAT no. […]

[3] = test system: Sirtuin 1 (Sirt-1); test: Hippocampal SIRT-1 expression by quantitative RT-PCR in TLE rats; format: in vivo; conditions: relative quantitation 2-∆∆Ct; TLE control 0.16 fold of normal
Experimental: Temporal lobe epilepsy (TLE) was induced in rats using the pilocarpine model according to the method of […] et al.. Prior to the experiment, rats were housed in plastic cages at October University for Modern Science and Arts under controlled environmental conditions (temperatures of 25°±3°C and 50% humidity) with free access to water and softened standard pellet chow. The rats were injected with pilocarpine (300 mg/kg; i.p.) to induce status epilepticus (SE). Atropine (1 mg/kg; i.p.) was injected 30 minutes before pilocarpine injection to antagonize the peripheral muscarinic activity. SE was defined using the modified Racine scale by observing seizure severity categorized as stages 4 and 5. […] For quantitative RT-PCR analysis of miR-199, Sirtuin 1 (Sirt-1) and long non-coding RNA of plasmacytoma variant translocation1 (LncRNA PVT-1), RNA was isolated from the brain hippocampus tissue with direct-zol RNA Miniprep Plus (CAT no. R2072) and reverse-transcribed into cDNA with the reverse transcriptase (CAT no. 12594100) according to the manufacturer instructions. […] Quantitative reverse transcriptase PCR was performed using a Power SYBR Green PCR Master Mix (CFX96 Instrument; Bio-Rad, USA). The relative quantitation (RQ) of each target gene is quantified according to the 2-ΔΔCt method calculation.

- ZNS released in 2 hours [1]: 96.9±2.1%
SMILES: NS(=O)(=O)Cc1noc2ccccc12 [ZNS, Zonisamide]
- decrease in serum level of NSE [2]: 30.6%
- hippocampal SIRT-1 level [3]: 0.47 folds

— paper PMC13538172, “Zonisamide nanodiamonds for brain targeting: A comprehensive study utilising in silico, in vitro, in vivo, and molecular investigation for successful nose-to-brain delivery for epilepsy management” (Drug Delivery and Translational Research, 2025)
